# Tested on: mouse kidney
# Test: RNA-seq of kidney gene expression over time in FA nephropathy progression (Table 1)
# Assay type: in vivo
# Excerpt: Identification of Candidate Genes for Biomarkers of Kidney Fibrosis Through RNA-Seq. […] To select genes that are indicative of fibrosis candidates were considered from this later group that had robust upregulation (>5-fold with >100 read counts at peak) over time as fibrosis progresses. Another important criteria was the location of the protein product of the gene, either in extracellular matrix or transmembrane, to increase the chance of detecting it in the urine and use it as a biomarker(11).
# (§1) RNA samples (n=3 mice/time point) were sequenced at the Bioplymers Facility at the Harvard Medical School. Libraries were prepared from 10 ng total RNA per sample using the IntegenX Apollo 324 system and NuGEN SPIA reagents. Libraries were multiplexed in groups of three per lane of a flowcell and 50 cycle, paired-end sequencing was performed on an Illumina HiSeq2000 instrument. Illumina sequence quality was surveyed with FastQC (available on the world wide web at bioinformatics.babraham.ac.uk/projects/fastqc/) to ensure suitability of library generation and sequencing for further analysis. Adapters and lower quality bases were trimmed with Cutadapt (available on the world wide web at code.google.com/p/cutadapt/), using a Phred quality cutoff of 20, and reassessed with FastQC. Trimmed reads were aligned to the Ensembl NCBIM37 Mus musculus genome build with TopHat2. Aligned reads were summarized at the gene level against the Illumina iGenomes (available on the world wide web at tophat.cbcb.umd.edu/igenomes.html) NCBIM37 Mus musculus gene annotations using HTSeq (available on the world wide web at huber.embl.de/users/anders/HTSeq/doc/overview.html). […] The full dataset is available in the NCBI GEO database with the accession number GSE65267. Raw data is accessible on the world wide web at ncbi.nlm.nih.gov/geo/query/acc.cgi?acc=GSE65267.
# Mice were sacrificed at 1, 2, 3, 7 and 14 days following administration. […] All mice were sacrificed at 14 days.
# as §1, with “The quantity and quality of mRNA” for “RNA samples (n=3 mice/time point)”, “assayed on an Agilent 2200 TapeStation instrument and by SYBR qPCR assay.” for “sequenced at the Bioplymers Facility at the Harvard Medical School.”, “(https://code.google.com/p/cutadapt/),” for “(available on the world wide web at code.google.com/p/cutadapt/),”
smiles,measurement,setting,value
"Nc1nc2ncc(CNc3ccc(C(=O)N[C@@H](CCC(=O)O)C(=O)O)cc3)nc2c(=O)[nH]1 [FA, folic acid]",Tsc22d1 mean fold change from normal,Day 7,2.18 fold
same,Ttc36 mean fold change from normal,Day 7,0.34 fold
same,Ttr mean fold change from normal,Day 7,0.56 fold
same,Tyrobp mean fold change from normal,Day 7,16.29 fold
same,Ugt3a1 mean fold change from normal,Day 7,0.22 fold
same,Uhrf1 mean fold change from normal,Day 7,3.81 fold
same,Upp2 mean fold change from normal,Day 7,0.69 fold
same,Vcam1 mean fold change from normal,Day 7,63.51 fold
same,Vill mean fold change from normal,Day 7,0.20 fold
same,Vmn1r18 mean fold change from normal,Day 7,0.27 fold
same,Vmn1r19 mean fold change from normal,Day 7,0.73 fold
same,Vmn1r20 mean fold change from normal,Day 7,0.27 fold
same,Vmn1r-ps11 mean fold change from normal,Day 7,0.11 fold
same,Vstm2a mean fold change from normal,Day 7,0.20 fold
same,Vtcn1 mean fold change from normal,Day 7,15.70 fold
same,Vwce mean fold change from normal,Day 7,1.03 fold
same,Wfdc15b mean fold change from normal,Day 7,0.27 fold
same,Ybx2 mean fold change from normal,Day 7,0.72 fold
same,7SK RNA mean fold change from normal,Day 14,1.35 fold
same,2310042D19Rik mean fold change from normal,Day 14,0.95 fold
same,4930533I22Rik mean fold change from normal,Day 14,0.74 fold
same,4933417A18Rik mean fold change from normal,Day 14,0.67 fold
same,8430408G22Rik mean fold change from normal,Day 14,0.79 fold
same,9030619P08Rik mean fold change from normal,Day 14,0.25 fold
same,Slc2a5 mean fold change from normal,Day 14,0.99 fold
same,Slc4a1 mean fold change from normal,Day 14,0.92 fold
same,Slc5a4a mean fold change from normal,Day 14,1.06 fold
same,Slc5a12 mean fold change from normal,Day 14,0.58 fold
same,Slc6a12 mean fold change from normal,Day 14,0.77 fold
same,Slc7a13 mean fold change from normal,Day 14,0.48 fold
same,Slc28a1 mean fold change from normal,Day 14,0.55 fold
same,Slc34a1 mean fold change from normal,Day 14,0.58 fold
same,Slc34a2 mean fold change from normal,Day 14,4.10 fold
same,Slc34a3 mean fold change from normal,Day 14,0.33 fold
same,Slc46a3 mean fold change from normal,Day 14,0.53 fold
same,Slco1a1 mean fold change from normal,Day 14,0.36 fold
same,Smoc2 mean fold change from normal,Day 14,6.08 fold
same,Smpdl3b mean fold change from normal,Day 14,19.27 fold
same,Snx31 mean fold change from normal,Day 14,0.27 fold
same,Socs1 mean fold change from normal,Day 14,36.18 fold
same,Sox4 mean fold change from normal,Day 14,7.60 fold
same,Sox9 mean fold change from normal,Day 14,8.17 fold
same,Spaca7 mean fold change from normal,Day 14,11.81 fold
same,Spink6 mean fold change from normal,Day 14,1.77 fold
same,Spp1 mean fold change from normal,Day 14,10.75 fold
same,Spred3 mean fold change from normal,Day 14,5.60 fold
same,Spsb1 mean fold change from normal,Day 14,4.14 fold
same,Spt1c3 mean fold change from normal,Day 14,0.68 fold
same,St8sia2 mean fold change from normal,Day 14,2.02 fold
same,Stil mean fold change from normal,Day 14,0.95 fold
same,Stk32a mean fold change from normal,Day 14,1.64 fold
same,Stra6 mean fold change from normal,Day 14,14.59 fold
same,Susd2 mean fold change from normal,Day 14,0.51 fold
same,Sycn mean fold change from normal,Day 14,0.22 fold
same,Synpr mean fold change from normal,Day 14,0.18 fold
same,Sytl2 mean fold change from normal,Day 14,6.72 fold
same,Tagln2 mean fold change from normal,Day 14,2.37 fold
same,Tbx10 mean fold change from normal,Day 14,0.44 fold
same,Timd2 mean fold change from normal,Day 14,0.67 fold
same,Timp1 mean fold change from normal,Day 14,61.27 fold
same,Tlr2 mean fold change from normal,Day 14,7.34 fold
same,Tmem25 mean fold change from normal,Day 14,0.53 fold
same,Tmem26 mean fold change from normal,Day 14,0.49 fold
same,Tmem207 mean fold change from normal,Day 14,1.20 fold
same,Tmsb10 mean fold change from normal,Day 14,5.31 fold
same,Tnc mean fold change from normal,Day 14,18.78 fold
same,Tnfaip3 mean fold change from normal,Day 14,3.95 fold
same,Tnfrsf23 mean fold change from normal,Day 14,1.75 fold
same,Top2a mean fold change from normal,Day 14,3.30 fold
same,Tpx2 mean fold change from normal,Day 14,2.69 fold
same,Tril mean fold change from normal,Day 14,0.97 fold
same,Tsc22d1 mean fold change from normal,Day 14,2.00 fold
same,Ttc36 mean fold change from normal,Day 14,0.67 fold
same,Ttr mean fold change from normal,Day 14,0.78 fold
same,Tyrobp mean fold change from normal,Day 14,10.29 fold
same,Ugt3a1 mean fold change from normal,Day 14,0.46 fold
same,Uhrf1 mean fold change from normal,Day 14,3.48 fold
same,Upp2 mean fold change from normal,Day 14,1.34 fold
same,Vcam1 mean fold change from normal,Day 14,36.46 fold
same,Vill mean fold change from normal,Day 14,0.36 fold
same,Vmn1r18 mean fold change from normal,Day 14,0.87 fold
same,Vmn1r19 mean fold change from normal,Day 14,1.04 fold
same,Vmn1r20 mean fold change from normal,Day 14,0.79 fold
same,Vmn1r-ps11 mean fold change from normal,Day 14,0.51 fold
same,Vstm2a mean fold change from normal,Day 14,0.60 fold
same,Vtcn1 mean fold change from normal,Day 14,7.44 fold
same,Vwce mean fold change from normal,Day 14,0.85 fold
same,Wfdc15b mean fold change from normal,Day 14,0.90 fold
same,Ybx2 mean fold change from normal,Day 14,0.44 fold

# From patent US10119168B2, “Methods for the treatment of kidney fibrosis” (priority 2014, dated 2018)
